Key:
[1] = molecular target: T1, ASIC1a (Homo sapiens, UniProt P78348); experiment: Calcium imaging of MES-induced calcium response (FLIPR); format: cell-based; parameters: host or cells: HEK293; conditions: ASIC1a expressing HEK293 cells, MES-induced calcium response; read-out: IC50 (FLIPR)
T1 sequence (P78348 1-528): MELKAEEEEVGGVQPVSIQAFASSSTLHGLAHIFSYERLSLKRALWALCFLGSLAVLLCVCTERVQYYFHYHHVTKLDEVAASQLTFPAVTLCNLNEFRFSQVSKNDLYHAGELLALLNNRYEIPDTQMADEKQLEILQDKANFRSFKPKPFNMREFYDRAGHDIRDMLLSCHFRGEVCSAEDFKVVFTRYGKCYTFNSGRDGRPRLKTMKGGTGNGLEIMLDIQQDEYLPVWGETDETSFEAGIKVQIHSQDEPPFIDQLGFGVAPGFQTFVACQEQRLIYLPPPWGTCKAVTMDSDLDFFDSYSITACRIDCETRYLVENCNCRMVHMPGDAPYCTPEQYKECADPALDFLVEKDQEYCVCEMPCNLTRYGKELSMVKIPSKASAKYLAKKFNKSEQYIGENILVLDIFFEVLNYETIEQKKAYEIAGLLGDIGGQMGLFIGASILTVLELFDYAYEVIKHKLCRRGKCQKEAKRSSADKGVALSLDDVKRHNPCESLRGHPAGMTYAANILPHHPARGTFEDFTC
Description: […] Confluency of cells should be 80-90% on day of plating. Cells are rinsed with 10 ml of PBS and cells are re-suspended by addition of culture medium and trituration with a 25 ml pipette.
The cells are seeded at a density of approximately 1×10^6 cells/ml (100 μl/well) in black-walled, clear bottom, 96-well plates pre-treated with 10 mg/l poly-D-lysin (75 μl/well for ≧30 min). Plated cells are allowed to proliferate for 24 h before loading with dye.
Fluo-4/AM (1 mg, Molecular Probes) is dissolved in 912 μl DMSO. The Fluo-4/AM stock solution (1 mM) is diluted with culture medium to a final concentration of 2 μM (loading solution).
The culture medium is aspirated from the wells, and 50 μl of the Fluo-4/AM loading solution is added to each well. The cells are incubated at 37° C. for 30 min.
Following the second wash, 100 μl modified Assay Buffer is added to each well and the fluorescence is measured in FLIPR™ or FlexStation™ (Molecular Devices, USA), or any other suitable equipment known to the skilled in the art.
Temperature: Room temperature (20-22° C.)
First addition: 50 μl test solution at a rate of 30 μl/sec and a starting height of […]
Second addition: 50 μl MES solution (20 mM, 5 mM final concentration) at a rate of 35 μl/sec and a starting height of 150 μl.
Reading intervals: pre-incubation−10 sec×7 and 3 sec×3 antagonist phase−3 sec×7 and 10 sec×12
Addition plates (compound test plate and MES plate) are placed on the right and left positions in the FLIPR tray, respectively. Cell plates are placed in the middle position and the ASIC1a program is effectuated. FLIPR will then take the appropriate measurements in accordance with the interval settings above. Fluorescence obtained after stimulation is corrected for the mean basal fluorescence (in modified Assay Buffer).
The MES-induced peak calcium response, in the presence of test substance, is expressed relatively to the MES response alone. Test substances that block the MES-induced calcium response are re-tested in triplicates.

[2] = molecular target: T1, ASIC1a; experiment: Two-electrode voltage clamp in Xenopus laevis oocytes (Xo), acid-induced currents; format: cell-based; parameters: expressed in transfected cells; host or cells: Xenopus laevis oocytes (nuclear microinjection of expression vector such as pcDNA3); conditions: Xenopus oocytes; for inhibition at 50 µM: read-out: % inh. at 50 μM (Xo)
Description: Two-electrode voltage clamp electrophysiological assays in Xenopus laevis oocytes expressing gated ion channels are performed as follows:
Oocytes are surgically removed from adult Xenopus laevis and treated for 2 h at room temperature with 1 mg/ml type I collagenase (Sigma) in Barth's solution under mild agitation. Selected oocytes at stage IV-V are defolliculated manually before nuclear microinjection of 2.5-5 ng of a suitable expression vector, such as pcDNA3, comprising the nucleotide sequence encoding a gated ion channel subunit protein. In such an experiment, the oocytes express homomultimeric proton-gated ion channels on their surface. In an alternate experiment, one, two, three or more vectors comprising the coding sequences for distinct gated ion channel subunits are co-injected in the oocyte nuclei. In the latter case, oocytes express heteromultimeric proton-gated ion channels. For example, ASIC2a and/or ASIC3 subunits in pcDNA3 vector are co-injected at a 1:1 cDNA ratio. After 2-4 days of expression at 19° C. in Barth's solution containing […] gentamicin and 1.8 mM CaCl2, gated ion channels are activated by applying an acidic solution (pH<7) and currents are recorded in a two electrode voltage-clamp configuration, using an OC-725B amplifier (Warner Instruments). Currents are acquired and digitized at 500 Hz on an Apple Imac G3 computer with an A/D NB-MIO-16XL interface (National Instruments) and recorded traces are post-filtered at 100 Hz in Axograph (Axon Instruments) (Neher, E. and Sakmann, B. (1976) Nature 260:799-802). Once impaled with the microelectrodes, oocytes are continuously superfused at 10-12 ml/min with a modified Ringer's solution containing 97 mM NaCl, 2 mM KCl, 1.8 mM CaCl2, and 10 mM HEPES brought to pH 7.4 with NaOH (Control Ringer). Test Ringer solution is prepared by replacing HEPES with MES and adjusting the pH to the desired acidic value. Compounds of the present invention are prepared in both the Control and Test Ringer solutions and applied to oocytes at room temperature through a computer-controlled switching valve system. Osmolarity of all solutions is adjusted to 235 mOsm with choline chloride. Similarly, recordings can also be acquired in an automated multichannel oocytes system as the OpusExpress™ (Molecular Devices, Sunnyvale, USA).
FIGS. 1A and 2A illustrate the inhibitory effects of Compounds 203 and 206 on acid-induced activation of recombinant homomeric hASIC1a channels.

Compound	IC50 [1] [µM]	inhibition at 50 µM [2] [%]	IC50 ([2]; table value, read-out: IC50 (Xo)) [µM]
COc1ccc(F)cc1-c1cc2c(c3c1CCN(C)C3)NC(=O)/C2=N\O[C@H]1O[C@@H](CO)[C@H](O)[C@@H](O)[C@@H]1O [Compound 20]	20 to 30	< 25	–
CN1CCc2c(-c3ccccc3)cc3cc[nH]c3c2C1 [Compound 78]	> 70	< 25	–
CN1CCc2c(-c3ccccc3)cc3c(c2C1)C(=O)N(N)C3=O [Compound 80]	> 70	< 25	–
CN1CCc2c(-c3ccccc3)cc3c(c2C1)NC(=O)C3 [Compound 81]	> 70	20 to 40	–
CN1CCc2c(-c3ccccc3)cc3c(c2C1)NC(=O)/C3=C/c1ccccc1C(=O)O [Compound 82]	> 70	< 25	–
CN1CCc2c(-c3ccccc3)cc3c(c2C1)NC(=O)/C3=C/c1ccc(C(=O)O)cc1 [Compound 83]	> 70	< 25	–
CN1CCc2c(-c3ccccc3)cc3c(c2C1)NC(=O)/C3=C/c1cccc(O)c1 [Compound 85]	> 70	< 25	–
CN1CCc2c(-c3ccccc3)cc3c(c2C1)NC(=O)/C3=C/c1ccccc1 [Compound 87]	> 70	< 25	–
CN1CCc2c(-c3ccccc3)cc3c(c2C1)NC(=O)/C3=C/c1ccc(O)cc1 [Compound 88]	> 70	< 25	–
CN1CCc2c(-c3ccccc3)cc3c(c2C1)NC(=O)/C3=C/c1ccccn1 [Compound 90]	> 70	< 25	–
CN1CCc2c(-c3ccccc3)cc3c(c2C1)NC(=O)/C3=C/C(=O)O [Compound 91]	> 70	< 25	–
CN1CCc2c(-c3ccccc3)cc3c(c2C1)NC(=O)/C3=C1\CCCN1C [Compound 93]	> 70	< 25	–
CCN(CC)C(=O)c1cc(-c2cc(F)ccc2OC)cc(C)c1NC(=O)N1CCNC1=O [Compound 192, 2-Oxo-imidazolidine-1-carboxylic acid (5-diethylcarbamoyl-5′-fluoro-2′-methoxy-3-methyl-biphenyl-4-yl)-amide]	–	< 25	–
CCN(CC)C(=O)c1cc(-c2cc(F)ccc2OC)cc(C)c1NC(=O)N1CCN(C(C)C)CC1 [Compound 193, 4-Isopropyl-piperazine-1-carboxylic acid (5-diethylcarbamoyl-5′-fluoro-2′-methoxy-3-methyl-biphenyl-4-yl)-amide]	–	< 25	–
COc1ccc(F)cc1-c1cc(C#N)c(NC(C)=O)c2c1CCN(C)C2 [Compound 195, N-[7-Cyano-5-(5-fluoro-2-methoxy-phenyl)-2-methyl-1,2,3,4-tetrahydro-isoquinolin-8-yl]-acetamide]	–	25 to 40	–
CCOC(=O)CNc1ccc(-c2ccccc2)c2c1CN(C)CC2 [Compound 204, (2-Methyl-5-phenyl-1,2,3,4-tetrahydro-isoquinolin-8-ylamino)-acetic acid ethyl ester]	–	–	> 50
COC(=O)CNc1ccc(-c2ccccc2)c2c1CN(C)CC2 [Compound 205, (2-Methyl-5-phenyl-1,2,3,4-tetrahydro-isoquinolin-8-ylamino)-acetic acid methyl ester]	–	20 to 40	–
CN1CCc2c(-c3ccccc3)cc(/C(N)=N/O)c(N)c2C1 [Compound 207]	–	> 50	–
COc1ccc(F)cc1-c1cc(/C(N)=N/O)c(N)c2c1CCN(C)C2 [Compound 208]	–	20 to 40	–
COc1ccc(F)cc1-c1cc(C#N)c(N2C(=O)CCC2=O)c2c1CCN(C)C2 [Compound 211]	–	< 25	–

The next lines start with results.

IC50 [1] [µM]	inhibition at 50 µM [2] [%]	Compound	IC50 ([2]; table value, read-out: IC50 (Xo)) [µM]
20 to 30	40 to 60	CO/N=C1/C(=O)Nc2c1cc(-c1cc(F)ccc1OC)c1c2CN(C)CC1 [Compound 24]	–
> 70	40 to 60	COc1ccc(C=O)cc1-c1cc2c(c3c1CCN(C)C3)NC(=O)/C2=N/O [Compound 30]	–
20 to 40	< 25	CN1CCc2c(-c3ccccc3)cc3c(c2C1)NC(=O)C31OCCO1 [Compound 76]	–
> 70	< 25	CN1CCc2c(-c3ccccc3)cc3c(c2C1)NCC31OCCO1 [Compound 77]	–
20 to 40	< 25	CN1CCc2c(-c3ccccc3)cc3c(c2C1)NC(=O)C3O (centres unmarked) [Compound 79]	–
> 70	< 25	CN1CCc2c(-c3ccccc3)cc3c(c2C1)NC(=O)/C3=C/c1cccc(C(=O)O)c1 [Compound 84]	–
> 70	< 25	CN1CCc2c(-c3ccccc3)cc3c(c2C1)NC(=O)/C3=C/c1ccccc1O [Compound 86]	–
> 70	< 25	C/C=C1/C(=O)Nc2c1cc(-c1ccccc1)c1c2CN(C)CC1 [Compound 89]	–
> 70	< 25	CCOC(=O)/C=C1/C(=O)Nc2c1cc(-c1ccccc1)c1c2CN(C)CC1 [Compound 92]	–
> 70	< 25	CN1CCc2c(-c3ccccc3)cc3c(O)cc(=O)[nH]c3c2C1 [Compound 94]	–
–	< 25	CCN(CC)C(=O)c1cc(-c2cc(F)ccc2OC)cc(C)c1NC(=O)N(C)C [Compound 191, 4-(3,3-Dimethyl-ureido)-5′-fluoro-2′-methoxy-5-methyl-biphenyl-3-carboxylic acid diethylamide]	–
–	< 25	COc1ccc(F)cc1-c1cc(C#N)c(N(C(C)=O)C(C)=O)c2c1CCN(C)C2 [Compound 194, N-Acetyl-N-[7-cyano-5-(5-fluoro-2-methoxy-phenyl)-2-methyl-1,2,3,4-tetrahydro-isoquinolin-8-yl]-acetamide]	–
–	< 25	COc1ccc(F)cc1-c1cc(C#N)c(N(S(C)(=O)=O)S(C)(=O)=O)c2c1CCN(C)C2 [Compound 196, N-[7-Cyano-5-(5-fluoro-2-methoxy-phenyl)-2-methyl-1,2,3,4-tetrahydro-isoquinolin-8-yl]-dimethanesulfonamide]	–
–	< 25	CCN1CCc2c(-c3ccccc3)cc3[nH]c(=O)[nH]c3c2C1 [Compound 222]	–
